Assay results published in PubChem BioAssay (NCI).
Where “and” joins values, the source holds several entries; their conditions need not be identical. Equal values may be shown once.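 These data come from cells grown in 96-well plates and exposed to compound for 48 hours at five concentrations. GI50 marks 50% less growth. TGI marks complete inhibition of growth.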 Where a SMILES comes first, the peptide text is derived from it. The star is where a group is joined. Cbz = O=C(OCc1ccccc1)*; Boc = CC(C)(C)OC(=O)*; Bn = c1ccc(C*)cc1

Columns and labels:
Assay in all cases: inhibition of tumour cell growth, NCI panel, 48 h
MDA-N = system: MDA-N
IGROV1 ovarian = system: IGROV1 ovarian
HCT-15 colon = system: HCT-15 colon
MCF7 breast = system: MCF7 breast
SF-295 CNS = system: SF-295 CNS
BT-549 breast = system: BT-549 breast
RXF 393 renal = system: RXF 393 renal
SNB-19 CNS = system: SNB-19 CNS
OVCAR-3 ovarian = system: OVCAR-3 ovarian
CAKI-1 renal = system: CAKI-1 renal
SK-MEL-2 melanoma = system: SK-MEL-2 melanoma
NCI/ADR-RES ovarian = system: NCI/ADR-RES ovarian
M14 melanoma = system: M14 melanoma
KM12 colon = system: KM12 colon
MALME-3M melanoma = system: MALME-3M melanoma
EKVX NSCLC = system: EKVX NSCLC
HS 578T breast = system: HS 578T breast

Row | Structure (SMILES) | TGI (MDA-N) [µM] | TGI (IGROV1 ovarian) [µM] | TGI (HCT-15 colon) [µM] | TGI (MCF7 breast) [µM] | TGI (SF-295 CNS) [µM] | TGI (BT-549 breast) [µM] | TGI (RXF 393 renal) [µM] | TGI (SNB-19 CNS) [µM] | TGI (OVCAR-3 ovarian) [µM] | TGI (CAKI-1 renal) | TGI (SK-MEL-2 melanoma) [µM] | TGI (NCI/ADR-RES ovarian) [µM] | TGI (M14 melanoma) [µM] | TGI (KM12 colon) | TGI (MALME-3M melanoma) [µM] | TGI (EKVX NSCLC) [µM] | TGI (HS 578T breast) [µM] | GI50 (KM12 colon)
1 | CCOP(=O)(OCC)C(Nc1cccc([N+](=O)[O-])c1)c1ccccc1 (stereo unspecified) | > 100 | 25.5 | > 100 | > 100 | > 100 | > 100 | > 100 | > 100 | > 100 | > 100 µM | > 100 | > 100 | > 100 | > 100 µM | > 100 | > 100 |  | 
2 | O=C1NC(=S)NC(=O)C1C(c1ccc([N+](=O)[O-])cc1)C1C(=O)NC(=S)NC1=O | > 100 | > 100 | > 100 | > 100 | > 100 | > 100 | > 100 | > 100 | > 100 | > 100 µM | > 100 | > 100 | > 100 | > 100 µM |  | > 100 | > 100 | 
3 | CC(=O)O[C@@H]1[C@H]2[C@@H](OC(=O)c3ccccc3)[C@@H](C)C[C@]2(O)[C@H](OC(C)=O)[C@@]2(C)[C@@H]3CC(C)(C)C(=O)[C@]3(OC(C)=O)C[C@@]12C | > 25 | > 25 | > 25 | > 25 | > 25 | > 25 | > 25 | > 25 | > 25 | > 25 µM | > 25 | > 25 | > 25 | > 25 µM |  | > 25 | > 25 | 
4 | N=C(N)C(N=Nc1ccccc1)C(N)=O (stereo unspecified) | > 100 | > 100 | > 100 | > 100 | > 100 | > 100 | > 100 | > 100 | > 100 | > 100 µM | > 100 | > 100 | > 100 | > 100 µM | > 100 | > 100 | > 100 | 
5 | CCOP1(=O)C=C(Sc2ccc([N+](=O)[O-])cc2[N+](=O)[O-])C(C)(C)O1 (stereo unspecified) | 17.6 | 30.4 | 36.7 | 17.2 | 40.8 | 32.2 | 31.8 | > 57.8 | 25.9 | 24.8 µM | 35.3 | > 76.5 | 24.5 | 38.6 µM | 31.4 | 18.8 | > 78.8 | 
6 | c1cc(CSP234N5CCN2CCN3CCN4CC5)ccc1CSP123N4CCN1CCN2CCN3CC4 | > 100 | > 100 | > 100 | > 100 | > 100 | > 100 |  | > 100 | > 100 | > 100 µM | > 100 | > 100 | > 100 | > 100 µM |  | > 100 | > 100 | 
7 | O=C(N/N=C/c1ccc([N+](=O)[O-])cc1)c1cccc2nc3ccccc3nc12 | > 100 | > 100 | > 100 | > 100 | > 100 | > 100 | > 80.7 | > 100 | > 100 | > 100 µM | > 100 | > 100 | > 100 | > 100 µM | > 100 | > 100 | 73.6 | 
8 | Cc1nc(-n2[nH]c(C)c(CCO)c2=O)[nH]c(=O)c1CCO | > 100 | > 100 | > 100 | > 100 | > 100 | > 100 | > 100 | > 100 | > 100 | > 100 µM |  | > 100 | > 100 | > 100 µM |  | > 100 | > 100 | 
9 | OCC1OC(NCCNCCNC2OC(CO)C(O)C(O)C2O)C(O)C(O)C1O (stereo unspecified) | > 100 | > 100 | > 100 | > 100 | > 100 | > 100 | > 100 | > 100 | > 100 | 10.3 µM and > 100 µM | > 100 | > 100 | > 100 | 22.5 µM and > 100 µM | > 100 | > 100 | > 100 | 10.4 µM and 43.3 µM and > 100 µM
10 | CN(C)CCCNc1ncnc2nc[nH]c12 | > 100 | > 100 | > 100 | > 100 | > 100 | > 100 | > 100 | > 100 | > 100 | > 100 µM | > 100 | > 100 | > 100 | > 100 µM | > 100 | > 100 | > 100 | 
11 | N#CCCSC1SC(=C2SC3=C(SCCS3)S2)SC1SCCC#N (stereo unspecified) | > 100 | > 100 | > 100 | > 100 | > 100 | > 100 | > 100 | > 100 | > 100 | > 100 µM | > 100 | > 100 | > 100 |  |  | > 100 | > 100 | 
12 | Cc1cccc2c(=O)c3c(O)cc(O)cc3[nH]c12 | > 10 | > 10 | > 10 | > 10 | > 10 | > 10 | > 10 | > 10 | > 10 | > 10 µM | > 10 | > 10 | > 10 | > 10 µM | > 10 | > 10 | > 10 | 
13 | C=C(C(=O)O)C1CCC(CC/C=C(\C)CC/C=C(\C)CCC=C(C)C)CO1 (stereo unspecified) | 27.8 | 39.3 | 31.9 | 32.6 | 42.8 | 61.8 | 29.6 | 29.1 |  | > 100 µM | 60.4 | 81.8 | 25.5 | 28.4 µM | 63 | 34.1 | > 100 | 
14 | CCN(CCCN(CC)C(=O)Nc1ccccc1)C(=O)Nc1ccccc1 | > 100 | > 100 | > 100 | > 100 | > 100 | > 100 | > 100 | > 100 | > 100 | > 100 µM | > 100 | > 100 | > 100 | > 100 µM | > 100 | > 100 |  | 
15 | COc1ccc2oc(=O)cc(C)c2c1 | > 100 | > 100 |  | > 100 | > 100 | > 100 | > 100 | > 100 | > 100 | > 100 µM | > 100 | > 100 | > 100 | > 100 µM | > 100 | > 100 | > 100 | 
16 | c1ccc(-c2cs[s+]c2)cc1 | > 100 | > 100 | > 100 | > 100 | > 100 | > 100 | > 100 | > 100 | > 100 | > 100 µM |  | > 100 | > 100 | > 100 µM | > 100 | > 100 | > 100 | 
17 | CC(=O)CCC(=O)C(=[N+]=[N-])S(=O)(=O)c1ccccc1 | > 100 | > 100 | > 100 | > 100 | > 100 | > 100 | > 100 | > 100 | > 100 |  | > 100 | > 100 | > 100 | > 100 µM | > 100 | > 100 | > 100 | 
18 | C/C(=N\Nc1ccccc1Br)c1cccc(/C(C)=N/Nc2ccccc2Br)n1 | > 100 | > 100 | > 100 | > 100 | > 100 | > 100 | 42.4 | > 100 | > 100 | > 100 µM | > 100 | > 100 | > 100 | > 100 µM | > 100 | > 100 |  | 
19 | O=C1CCCCC1=C(I)I | 31.3 | 30.4 |  |  | 65.8 | 26.8 | 30.5 | 24.9 | 30.3 |  | 31.8 |  | 32.3 | 28.8 µM | 27.5 | 4.1 | > 100 | 
20 | CCOP(=O)(OCC)/C(C#N)=C/c1ccc(-c2ccc(F)cc2F)o1 | 48.7 | 34.6 | 28.7 | 43 | 30.8 | 24.5 | > 100 | 33.3 | 30.1 | 28.6 µM | 44 | 58.9 | 31.7 | 31.6 µM | 33.4 | 31 |  | 
21 | O=c1c2c(c1=O)C1(SCCCS1)c1cc(Cl)ccc1O2 | > 100 | > 100 | > 100 | > 100 | > 100 | > 100 | > 100 | > 100 | > 100 | > 100 µM | > 100 | > 100 | > 100 | > 100 µM | > 100 | > 100 |  | 
22 | Cc1cnc(/N=c2\sc(C)cn2-c2ncc(C)s2)s1 | > 100 | > 100 | > 100 | > 100 | > 100 | > 100 | > 100 | > 100 | > 100 |  |  | > 100 | > 100 | > 100 µM | > 100 | > 100 | > 100 | 
23 | COC(=O)[C@@H](O)[C@]1(C(=O)OC)C2O[C@@H](OC)[C@@H]1CCCCCC[C@H]2O | > 100 | > 100 | > 100 |  | > 100 | > 100 | > 100 | > 100 | > 100 | > 100 µM | > 100 | > 100 | > 100 | > 100 µM | > 100 | > 100 | > 100 | 
24 | CCCCn1cnnc1NS(=O)(=O)c1cc(C)c(Cl)cc1SCC(=O)O | > 10 | > 10 | > 10 |  | > 10 | > 10 | > 10 | > 10 | > 10 | > 10 µM | > 10 | > 10 | > 10 | > 10 µM | > 10 | > 10 | > 10 | 
25 | CC(C)C1OC2(C)OC(=N)C1(C#N)C(C#N)(C#N)C2C (stereo unspecified) | 29.8 |  | 25.3 | 41.7 | > 100 | > 100 | > 100 |  | 33.4 | 22.8 µM | 67.7 | > 100 | 30.5 | > 100 µM | 57.8 | 53.4 | 69.4 | 
26 | COC(=O)C12OC(C)(C(CC(=O)OC(C)(C)C)C1=O)C1C(=O)N(c3ccccc3)C(=O)C12 (stereo unspecified) | > 100 | > 100 | > 100 |  | > 100 | > 100 | > 100 | > 100 | > 100 | > 100 µM | > 100 | > 100 | > 100 | > 100 µM | > 100 |  | > 100 | 
27 | Cc1nc2ccc(F)cc2c2c1CCO2 | > 100 | > 100 | > 100 |  | > 100 | > 100 | > 100 | > 100 |  | 96 µM | > 100 | > 100 | > 100 | > 100 µM | > 100 | > 100 | > 100 | 
28 | CC(C)(C)OC(=O)NC(Cc1ccc(OCc2ccccc2)cc1)C(=O)NC(CCCCNC(=O)OCc1ccccc1)C(=O)O (stereo unspecified) (Boc-Tyr(Bn)-Lys(Cbz)-OH; configuration not given here) | > 100 | > 100 |  | > 100 |  | 60.8 | > 100 | > 100 |  |  | 80 |  | > 100 | > 100 µM | > 100 | > 100 | > 100 | 
29 | OCC1OC(Oc2cc(O)cc(/C=C/c3ccc(O)cc3)c2)C(O)C(O)C1O (stereo unspecified) | > 100 | > 100 | > 100 | > 100 | > 100 | > 100 | > 100 | > 100 | > 100 | > 100 µM | > 100 | > 100 |  | > 100 µM |  | > 100 | > 100 | 
